Our source for the IC50, CC50 and CC20 values is ChEMBL document CHEMBL3832761, “MMV Pathogen Box Bioactivity Data” (2017).

A value given as a limit tells only on which side of the number the result lay.

For assay [1], the system named is Leishmania infantum. Kind of assay: AntiLeishmania activity L. infantum (macrophages) IC50 (uM). The assay is classed as functional, organism-based.
The subject of assay [2] is MRC5. Kind of assay: MRC5 CC50 (uM) Cytotoxicity. In kind it is functional. The following applies: Homo sapiens.
A short description of assay [3]: PMM CC50 (uM) Cytotoxicity. The note with it: Macrophage. The assay is classed as functional.
The subject of assay [4] is Trypanosoma brucei. Briefly: AntiTrypanosoma brucei activity T. b. brucei IC50 (uM). The assay is classed as functional, organism-based.
Assay [5] deals with Trypanosoma brucei. Kind of assay: AntiTrypanosoma brucei activity T. b. rhodesiense IC50 (uM). The assay is classed as functional, organism-based.
The test system of assay [6] is HepG2. Briefly: Cytotoxicity data HepG2 CC20 (uM). The assay is classed as functional.
The test system of assay [7] is Trypanosoma cruzi. Kind of assay: AntiTrypanosoma cruzi activity IC50 (uM). The assay is classed as functional, organism-based.

For orientation: IC50 means the concentration that gives 50% inhibition. High values mean weaker potency in that assay, low ones greater potency in that assay. As a reminder, the CC50 is the concentration at which the toxic effect on the cells reaches its halfway point.

For `CCCCN(CCCC)c1c(C#N)cc(S(=O)(=O)Nc2ccccc2)cc1C#N`, the IC50 in assay [1] turned out to be 13.6 µM; in assay [4], 0.26 µM; in assay [5], 0.24 µM; in assay [7] it was 0.82 µM. Also, the CC50 turned out to be 3.9 µM in assay [2] and 16 µM in assay [3]. This compound also yielded a CC20 in assay [6] of 11.9 µM.

As for `CO[C@@H](C(=O)N1Cc2[nH]nc(NC(=O)c3ccc(N4CCN(C)CC4)cc3)c2C1)c1ccccc1` [DANUSERTIB], the IC50 came out at 4.06 µM in assay [1], 1.02 µM in assay [4], 0.37 µM in assay [5] and 6.48 µM in assay [7]. The CC50 in assay [2] is 2.7 µM; in assay [3] it was 4 µM. Besides, in assay [6], the CC20 came out at 4.83 µM.

In the case of `CCc1ccccc1-n1c(C)cn2c3c(=O)n(C(C(=O)OC)C(C)C)c(=O)n(C)c3nc12` (stereo not given), the IC50 in assay [1] was above 32 µM; in assay [4], below 0.13 µM; in assay [5], below 0.13 µM; in assay [7], 0.99 µM. In addition, the CC50 in assay [2] and in assay [3] was above 32 µM throughout. In assay [6], this compound showed a CC20 of 44.3 µM.

As to `CNC(=O)c1nn(C)c2c1C(C)(C)Cc1cnc(Nc3ccc(N4CCN(C)CC4)cc3)nc1-2` [MILCICLIB], the IC50 was 0.85 µM in assay [1], below 0.13 µM in assay [4], below 0.13 µM in assay [5] and 1.05 µM in assay [7]. Besides, the CC50 in assay [2] is 1.1 µM; in assay [3], 1 µM. In assay [6], this compound came in with a CC20 below 0.26 µM.

For the compound `CC1=Nc2ccc(Cl)cc2C(O)(c2ccc(C)cc2)N1CCN1CCCCC1` (stereo not given), the IC50 in assay [1] stood at 4.06 µM; in assay [4], 0.98 µM; in assay [5] it was 0.43 µM; in assay [7], 4.04 µM. The CC50 in assay [2] was 16 µM; in assay [3], 4 µM. The compound further showed a CC20 in assay [6] of 10 µM.

As for `COc1ccc(C2=NCCN2)cc1-c1cn(-c2cccc(C3=NCCN3)c2)nn1`, the IC50 in assay [1] was above 32 µM; in assay [4], above 32 µM; in assay [5] it was 1.63 µM; in assay [7] it was above 32 µM. Also, the CC50 in assay [2] and in assay [3] was above 32 µM throughout. Further, in assay [6], the CC20 was above 80 µM.

Regarding `N=C(N)Nc1ccc(-c2ccc(-c3ccc(NC(=N)N)cc3Cl)o2)c(Cl)c1`, the IC50 was 1.01 µM in assay [1], 1.03 µM in assay [4], 0.23 µM in assay [5] and 0.29 µM in assay [7]. In addition, the values for the CC50 in assay [2] and in assay [3] were 11.6 µM and 1 µM, respectively. Also, in assay [6], the CC20 turned out to be 6.75 µM.

For the compound `COc1cc(C2=NCCN2)cc2cc(-c3ccc(C4=NCCN4)cc3)oc12`, the IC50 in assay [1] is above 32 µM; in assay [4] it was 14.5 µM; in assay [5] it was 0.78 µM; in assay [7] it was 13.3 µM. Also, the CC50 in assay [2] and in assay [3] was above 32 µM in each case. Also, the CC20 in assay [6] came to 14.3 µM.

For `COc1ccc(S(=O)(=O)Nc2ccc(CN3CCN(C(=O)c4cccc(C#N)c4)CC3)cc2)cc1`, the IC50 was determined as 52.2 µM in assay [1], 0.5 µM in assay [4], 0.4 µM in assay [5] and 2.7 µM in assay [7]. The CC50 in assay [2] and in assay [3] was above 64 µM throughout.

For `O=C(Nc1ccc(F)c(-c2nc3cc(-c4ccccc4)cnc3[nH]2)c1)N1CCCC1`, the IC50 in assay [1] is 0.16 µM; in assay [4] it was below 0.13 µM; in assay [5] it was below 0.13 µM; in assay [7] it was below 0.13 µM. The CC50 was 0.4 µM in assay [2] and 16 µM in assay [3].

Turning to `Clc1ccc(CN2CCN(C3=NCCN3)CC2)cc1Cl`, the IC50 in assay [1] was above 64 µM; in assay [4] it was 31.6 µM; in assay [5], 30.1 µM; in assay [7] it was 6.57 µM. In addition, the CC50 in assay [2] and in assay [3] was above 64 µM throughout.

Take `Cc1nn2c(=O)c3c([nH]c2c1-c1ccc(Cl)cc1)CCCC3`: the IC50 in assay [1] was found to be 44 µM; in assay [4] it was 0.49 µM; in assay [5] it was 0.14 µM; in assay [7], 0.71 µM. The CC50 is above 64 µM in assay [2] and 48 µM in assay [3].
